How the values were obtained:
[1] = tested on: Aspergillus spp K-27 glucoamylase; conditions: Abe et al., 1990, cited from earlier work
[2] = target: T1, Thielavia terrestris ATCC 20627 glucoamylase, wild type, recombinant (expressed in Aspergillus oryzae), SEQ ID NO:2 (Thermothielavioides terrestris, UniProt G2QUZ8); assay: Catalytic constants of recombinant Thielavia terrestris glucoamylase, maltotriose hydrolysis (glucose oxidase assay); assay type: biochemical
T1 construct: N-terminus identical to native enzyme
T1 sequence (G2QUZ8 20-638): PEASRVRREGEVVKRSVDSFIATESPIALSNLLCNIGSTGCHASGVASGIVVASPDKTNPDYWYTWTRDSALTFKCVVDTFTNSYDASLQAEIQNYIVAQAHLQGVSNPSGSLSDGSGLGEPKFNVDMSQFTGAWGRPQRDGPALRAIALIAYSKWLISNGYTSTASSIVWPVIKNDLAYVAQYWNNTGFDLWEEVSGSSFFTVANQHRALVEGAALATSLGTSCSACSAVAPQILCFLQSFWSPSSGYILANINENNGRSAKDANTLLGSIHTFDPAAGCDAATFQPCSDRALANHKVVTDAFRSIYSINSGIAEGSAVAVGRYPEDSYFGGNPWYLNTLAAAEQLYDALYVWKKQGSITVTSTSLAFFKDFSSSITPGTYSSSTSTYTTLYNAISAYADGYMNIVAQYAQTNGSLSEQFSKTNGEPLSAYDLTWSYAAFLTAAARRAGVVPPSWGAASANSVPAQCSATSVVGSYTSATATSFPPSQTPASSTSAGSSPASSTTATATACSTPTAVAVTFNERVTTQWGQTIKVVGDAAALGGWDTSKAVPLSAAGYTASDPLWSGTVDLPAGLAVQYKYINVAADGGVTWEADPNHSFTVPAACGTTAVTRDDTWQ
Experimental: The glucose-releasing activity of glucoamylase (on maltooligosaccharide) was measured using a glucose oxidase assay kit (Sigma Chemical Co., St. Louis, Mo.) according to the manufacturer's instructions. […] To obtain the correct glucoamylase activity, glucoamylase samples were subjected to ultrafiltration and the resulting retentate (glucoamylase enriched) and filtrate (containing no glucoamylase) were assayed by the glucose oxidase kit. The background substrate oxidation was then subtracted from the data obtained for the glucoamylase samples. Another glucoamylase activity assay comprised of glucoamylase hydrolysis on maltose and glucose detection by a Glucose GOD-Perid kit (Boehringer Mannheim, Indianapolis, Ind.) according to the manufacturer's instructions. In this assay, 900 µl of 50 mM sodium acetate, pH 4.3, containing 1% maltose, pre-incubated for 5 minutes at 37° C., was mixed with 20 μl of glucoamylase solution in 50 mM sodium acetate pH 4.3. After a 10 minute incubation, 80 μl of 1 M NaOH was added to inactivate glucoamylase and the mixture was chilled on ice to prevent the non-enzymatic, basic hydrolysis of maltose. A 20 μl volume of the solution was then mixed with 200 μl of GOD-Perid solution. After a 30 minute incubation at room temperature, the absorbance at 650 nm was measured. The Prism program (from GraphPad, San Diego, Calif.) was used to calculate Km and Vmax by non-linear regression. The parameter kcat (mole glucose produced per mole glucoamylase per min) was calculated by kcat ={(Vmax +1.01)/0.30}/[enzyme], where the units were 0.001 Abs /minute for Vmax and μM for [enzyme]. The 124 mM^-1 cm^-1 value, calculated from the amount of tyrosine, phenylalanine, and cysteine as deduced from the DNA sequence, was used for the extinction coefficient of Thielavia terrestris glucoamylase at 280 nm.
Then 50 μl of Sigma's GO glucose oxidase assay reagent and 25 μl of H2 O were added and the absorption change was monitored at 490 nm.
The temperature-activity profile was measured in quadruplicate at 4, 22, 30, 37, 50, 60, 70, and 80° C. […] After 30 minutes, 5 μl Thielavia terrestris glucoamylase stock (0.11 mg/ml) was added and the solution was kept at the same temperature. After 20 minutes, the solutions were chilled (in ice-water) and briefly centrifuged (in 0.7-ml microcentrifuge tubes). Then 25 μl of these solutions were subjected to the glucoamylase assay by mixing with 50 μl of glucose oxidase reagent and 25 μl of H2 O as described above.

[3] = target: Aspergillus awamori glucoamylase (Aspergillus awamori, UniProt P69327); conditions: Sierks and Svensson, 1993, cited from earlier work
Chain of Aspergillus awamori glucoamylase (P69327 25-640): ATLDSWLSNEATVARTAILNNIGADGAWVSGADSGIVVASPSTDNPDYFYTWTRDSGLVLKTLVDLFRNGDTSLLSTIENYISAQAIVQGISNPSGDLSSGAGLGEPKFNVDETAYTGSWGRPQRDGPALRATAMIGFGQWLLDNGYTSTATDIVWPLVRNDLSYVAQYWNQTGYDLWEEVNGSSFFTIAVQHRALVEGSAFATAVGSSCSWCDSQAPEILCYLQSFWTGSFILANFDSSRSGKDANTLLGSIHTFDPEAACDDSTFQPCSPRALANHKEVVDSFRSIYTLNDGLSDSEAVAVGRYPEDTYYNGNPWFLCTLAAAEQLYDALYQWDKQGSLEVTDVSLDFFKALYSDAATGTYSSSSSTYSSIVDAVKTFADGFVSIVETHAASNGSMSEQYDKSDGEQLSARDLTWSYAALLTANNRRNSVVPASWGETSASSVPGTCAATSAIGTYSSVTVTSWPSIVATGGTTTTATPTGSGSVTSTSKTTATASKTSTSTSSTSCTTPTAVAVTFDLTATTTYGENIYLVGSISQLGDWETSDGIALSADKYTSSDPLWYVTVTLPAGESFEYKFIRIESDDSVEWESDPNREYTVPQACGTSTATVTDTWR

[4] = tested on: Trichoderma reesei glucoamylase; conditions: Fagerstrom and Kalkkinen, 1995, cited from earlier work

Compound: OC[C@H]1O[C@H](O[C@H]2[C@H](O)[C@@H](O)[C@@H](O[C@H]3[C@H](O)[C@@H](O)C(O)O[C@@H]3CO)O[C@@H]2CO)[C@H](O)[C@@H](O)[C@@H]1O (stereo partly shown) [maltotriose]
- kcat ([1]; maltotriose): 65 s⁻¹
- Km ([1]; read-out: Km for maltotriose): 450 µM
- Km ([2]; at pH 4 from 4° C. to 80° C.): < 1000 µM
- kcat ([2]; at pH 4 from 40° C. to 70° C.): > 10^5 /min
- kcat ([2]; from pH 3 to 7 at 20° C.): > 10^5 /min
- Km ([2]; from pH 3 to 11 at 20° C.): < 1000 µM
- kcat ([3]; maltotriose): 61.67 s⁻¹
- Km ([3]; read-out: Km for maltotriose): 730 µM
- kcat ([4]; maltotriose): 20 s⁻¹
- Km ([4]; read-out: Km for maltotriose): 500 µM
